Starred links: 1 amine or outer side, 2 acyl side, 3 side chain; linkers in the order of their positions; H or OH if unused. Non-standard residues stand in square brackets, D forms with d. Residues, ends and D or L forms follow the SMILES beside them. Ala(9-anthryl) = N[C@@H](Cc1c2ccccc2cc2ccccc12)C(=O)O; Pro(4R-Bn) = O=C(O)[C@@H]1C[C@@H](Cc2ccccc2)CN1; NMePhg = CN[C@H](C(=O)O)c1ccccc1; Cysteamide = C(CS[*:3])N[*:1]; Tle = CC(C)(C)[C@H](N)C(=O)O; NMeA = CN[C@@H](C)C(=O)O
Experiments:
[1] = tested on: MCF-7 breast cancer cell line; test: Cell viability, MCF-7, PrestoBlue assay; type: cell-based; conditions: NA = not active
Protocol: To test our theory we decided to focus on Smac multimers. First, we synthesized a small library of Smac compounds (see, Tables 3 and 4) varying in position 4 substituents having general structure N-MeAla-Tle-4-(trans-Bn)-Pro-Xaa-NHCH2CH2—SH (SEQ ID NO:38), which were tested in vitro using MDA-MB-231 and MCF-7 breast cancer cell lines and PrestoBlue™ assay (Invitrogen).

[2] = tested on: MDA-MB-231 breast cancer cell line

| Structure (SMILES) | EC50 [1] [µM] | EC50 [2] [µM] |
| --- | --- | --- |
| CN[C@@H](C)C(=O)N[C@H](C(=O)N1C[C@H](Cc2ccccc2)C[C@H]1C(=O)N(C)[C@H](C(=O)NCCS)c1ccccc1)C(C)(C)C [SMAC2, N^MeAla-Tle-(4-Bzl)Pro-N^MePhg-NHCH2CH2SH] (H-[NMeA][Tle][Pro(4R-Bn)][NMePhg]-Cysteamide; N-terminus assumed) | 43.6 ± 1.6 | 23.8 ± 4.5 |
| CN[C@@H](C)C(=O)N[C@H](C(=O)N1C[C@H](Cc2ccccc2)C[C@H]1C(=O)N1c2ccccc2C[C@H]1C(=O)NCCS)C(C)(C)C [SMAC5, N^MeAla-Tle-(4-Bzl)Pro-Idc-NHCH2CH2SH] | 477 ± 48.4 | 68.3 ± 4 |
| CN[C@@H](C)C(=O)N[C@H](C(=O)N1C[C@H](Cc2ccccc2)C[C@H]1C(=O)N[C@@H](Cc1c(F)c(F)c(F)c(F)c1F)C(=O)NCCS)C(C)(C)C [SMAC9, N^MeAla-Tle-(4-Bzl)Pro-PhF-NHCH2CH2SH] | 19.8 ± 3 | 27 ± 3.2 |
| CN[C@@H](C)C(=O)N[C@H](C(=O)N1C[C@H](Cc2ccccc2)C[C@H]1C(=O)N[C@@H](Cc1cccc2ccccc12)C(=O)NCCSCc1cc(CSCCNC(=O)[C@H](Cc2cccc3ccccc23)NC(=O)[C@@H]2C[C@@H](Cc3ccccc3)CN2C(=O)[C@@H](NC(=O)[C@H](C)NC)C(C)(C)C)cc(CSCCNC(=O)[C@H](Cc2cccc3ccccc23)NC(=O)[C@@H]2C[C@@H](Cc3ccccc3)CN2C(=O)[C@@H](NC(=O)[C@H](C)NC)C(C)(C)C)c1)C(C)(C)C [SMAC14-3X, (N^MeAla-Tle-(4-Bzl)Pro-^1Nal-NHCH2CH2S)3—(CH2)3Ph] | 120 ± 8.4 | 7.2 ± 1.5 |
| CN[C@@H](C)C(=O)N[C@H](C(=O)N1C[C@H](Cc2ccccc2)C[C@H]1C(=O)N[C@@H](Cc1c[nH]c2ccccc12)C(=O)NCCS)C(C)(C)C [SMAC19, N^MeAla-Tle-(4-Bzl)Pro-Trp-NHCH2CH2SH] (H-[NMeA][Tle][Pro(4R-Bn)]W-Cysteamide; N-terminus assumed) | 27.6 ± 1.8 | 36.7 ± 3.2 |
| CN[C@@H](C)C(=O)N[C@H](C(=O)N1C[C@H](Cc2ccccc2)C[C@H]1C(=O)NC(CC(=O)NCCS)c1cccc2ccccc12)C(C)(C)C (stereo partly drawn) [SMAC13, N^MeAla-Tle-(4-Bzl)Pro-bh^1NalGly-NHCH2CH2SH] | 12.3 ± 0.5 | 21.7 ± 1.3 |
| CN[C@@H](C)C(=O)N[C@H](C(=O)N1C[C@H](Cc2ccccc2)C[C@H]1C(=O)N[C@H](CC(=O)NCCS)Cc1ccccc1)C(C)(C)C [SMAC10, N^MeAla-Tle-(4-Bzl)Pro-bhPhe-NHCH2CH2SH] | 23.9 ± 2.1 | 29.7 ± 3.3 |
| CN[C@@H](C)C(=O)N[C@H](C(=O)N1C[C@H](Cc2ccccc2)C[C@H]1C(=O)N[C@@H](Cc1cccc2ccccc12)C(=O)NCCSCc1ccc(CSCCNC(=O)[C@H](Cc2cccc3ccccc23)NC(=O)[C@@H]2C[C@@H](Cc3ccccc3)CN2C(=O)[C@@H](NC(=O)[C@H](C)NC)C(C)(C)C)cc1)C(C)(C)C [SMAC14-2X, (N^MeAla-Tle-(4-Bzl)Pro-^1Nal-NHCH2CH2S)2—(CH2)2Ph] | 3.5 ± 1.6 |  |
| CN[C@@H](C)C(=O)N[C@H](C(=O)N1C[C@H](Cc2ccccc2)C[C@H]1C(=O)NCc1ccc(CC(=O)NCCS)cc1)C(C)(C)C [SMAC3, N^MeAla-Tle-(4-Bzl)Pro-Amp-NHCH2CH2SH] |  | 14.3 ± 3.2 |
| CN[C@@H](C)C(=O)N[C@H](C(=O)N1C[C@H](Cc2ccccc2)C[C@H]1C(=O)N[C@@H](Cc1c2ccccc2cc2ccccc12)C(=O)NCCS)C(C)(C)C [SMAC18, N^MeAla-Tle-(4-Bzl)Pro-Ant-NHCH2CH2SH] (H-[NMeA][Tle][Pro(4R-Bn)][Ala(9-anthryl)]-Cysteamide) |  | 17.3 ± 1 |
| CN[C@@H](C)C(=O)N[C@H](C(=O)N1C[C@H](Cc2ccccc2)C[C@H]1C(=O)N[C@@H](Cc1ccc(-c2ccccc2)cc1)C(=O)NCCSCc1ccc(CSCCNC(=O)[C@H](Cc2ccc(-c3ccccc3)cc2)NC(=O)[C@@H]2C[C@@H](Cc3ccccc3)CN2C(=O)[C@@H](NC(=O)[C@H](C)NC)C(C)(C)C)cc1)C(C)(C)C [SMAC17-2X, (N^MeAla-Tle-(4-Bzl)Pro-Bip-NHCH2CH2S)2—(CH2)2Ph] | 1.7 ± 0.4 |  |

Source: patent publication US9556229B2, “Modification of peptides using a bis(thioether)arylbridge approach” (priority 2012, dated 2017)
